Experimental data from patent US20140121231A1, “PYRANOPYRIDONE INHIBITORS OF TANKYRASE” (Hoffmann-La Roche, Inc., priority 2012, published 2014).

Assays:
[1] = biological target: T1, tankyrase 2 (His6-TNKS2) (Homo sapiens, UniProt Q9H2K2); test: μHTS-TNKS-IWR2 TR-FRET Binding Assay (Example 71), TNKS2; details: footnote 1: Tankyrase 1 and 2 inhibition assay in Example 71 (TR-FRET)
T1 construct: His6-tankyrase 2 (construct: 934-1166) (His6-TNKS2)
Description: (§1) μHTS-TNKS-IWR2 TR-FRET Binding Assay (10 μL/well in BD1536-well plate, a single point)
Biotin-4-((1S,2R,6S,7R)-3,5-Dioxo-4-aza-tricyclo[5.2.1.0*2,6*]dec-8-en-4-yl)-N-(4-methyl-quinolin-8-yl)-benzamide (Biotin-IWR2): 10 mM Biotin-IWR2 stock in DMSO, stored at −20° C. Positive control: 10 mM 2-(4-Trifluoromethyl-phenyl)-3,5,7,8-tetrahydro-thiopyrano[4,3-d]pyrimidin-4-one (XAV939) in DMSO, stored at −20° C.
(§2) Assay buffer 1a (AB1a) for TNKS dilution: 50 mM Tris, pH 7.4, 100 mM sodium chloride solution, 1 mM magnesium chloride solution, 1 mM DL-dithiothreitol solution, 0.2 mg/mL bovine serum albumin solution, 0.025% NP-40. Assay buffer 1b (AB 1b) for Biotin-IWR2 dilution: 50 mM Tris, pH 7.4, 100 mM sodium chloride solution, 1 mM magnesium chloride solution, 1 mM DL-dithiothreitol solution, 0.2 mg/mL bovine serum albumin solution, 0.05% NP-40 Assay buffer 1c (AB 1c) for compound dilution: 50 mM Tris, pH 7.4, 100 mM sodium chloride solution, 1 mM magnesium chloride solution, 1 mM DL-dithiothreitol solution, 0.2 mg/mL bovine serum albumin solution Assay buffer 2 (AB2) for Eu/APC: 50 mM Tris, pH 7.4, 100 mM sodium chloride solution, 1 mM magnesium chloride solution, 0.2 mg/mL bovine serum albumin solution
(§3) Transfer 3 μL/well of above solution (solution 1,2,3) to an empty assay plate (BD1536-well plate) as follows: TOTAL and cpd wells: Solution 1 (Biotin-IWR2): BLANK wells: Solution 2 (No Biotin-IWR2): POSITIVE CONTROL wells: Solution 3 (Biotin-IWR2XAV939) Transfer 3 μL/well of the above diluted compound solutions or compound dilution buffer to the above assay plate. Add 2 μL/well of 300 nM TNKS stock solution (4) to every well in the above assay plate. Centrifuge the assay plate at 2100 rpm for 2 min. Incubate the assay plate at 26° C. for 30 minutes. Add 2 μL/well 3.5 nMEu/50 nM APC solution (5) to every well in the above assay plate. Centrifuge the assay plate at 2100 rpm for 2 min. Incubate the assay plate at 26° C. for 60 min.

[2] = biological target: T2, Tankyrase 1 (TNKS1) (Homo sapiens, UniProt O95271); test: μHTS-TNKS-IWR2 TR-FRET Binding Assay (Example 71), TNKS1
T2 construct: His6-TNKS1, MW=28.2 KDa (construct: 1088-1327, 1266M)
T2 sequence (O95271 1088-1327): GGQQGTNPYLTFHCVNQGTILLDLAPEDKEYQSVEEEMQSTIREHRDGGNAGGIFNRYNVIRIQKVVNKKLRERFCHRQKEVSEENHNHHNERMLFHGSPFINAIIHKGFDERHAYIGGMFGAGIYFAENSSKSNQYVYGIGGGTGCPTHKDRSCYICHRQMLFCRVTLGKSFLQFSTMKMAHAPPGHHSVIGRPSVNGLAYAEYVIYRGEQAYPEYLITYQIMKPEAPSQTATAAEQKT
Description: as §1, §2, §3

[3] = biological target: T3, PARP1 (His6-PARP1, full length) (Homo sapiens, UniProt P09874); test: TR-FRET Binding Assay (Example 71), PARP1; details: TR-FRET assay of Example 71 with His6-PARP1
T3 construct: His6-PARP1 (full length) can be substituted for His6-TNKS 1
T3 sequence (P09874 whole entry, species assumed): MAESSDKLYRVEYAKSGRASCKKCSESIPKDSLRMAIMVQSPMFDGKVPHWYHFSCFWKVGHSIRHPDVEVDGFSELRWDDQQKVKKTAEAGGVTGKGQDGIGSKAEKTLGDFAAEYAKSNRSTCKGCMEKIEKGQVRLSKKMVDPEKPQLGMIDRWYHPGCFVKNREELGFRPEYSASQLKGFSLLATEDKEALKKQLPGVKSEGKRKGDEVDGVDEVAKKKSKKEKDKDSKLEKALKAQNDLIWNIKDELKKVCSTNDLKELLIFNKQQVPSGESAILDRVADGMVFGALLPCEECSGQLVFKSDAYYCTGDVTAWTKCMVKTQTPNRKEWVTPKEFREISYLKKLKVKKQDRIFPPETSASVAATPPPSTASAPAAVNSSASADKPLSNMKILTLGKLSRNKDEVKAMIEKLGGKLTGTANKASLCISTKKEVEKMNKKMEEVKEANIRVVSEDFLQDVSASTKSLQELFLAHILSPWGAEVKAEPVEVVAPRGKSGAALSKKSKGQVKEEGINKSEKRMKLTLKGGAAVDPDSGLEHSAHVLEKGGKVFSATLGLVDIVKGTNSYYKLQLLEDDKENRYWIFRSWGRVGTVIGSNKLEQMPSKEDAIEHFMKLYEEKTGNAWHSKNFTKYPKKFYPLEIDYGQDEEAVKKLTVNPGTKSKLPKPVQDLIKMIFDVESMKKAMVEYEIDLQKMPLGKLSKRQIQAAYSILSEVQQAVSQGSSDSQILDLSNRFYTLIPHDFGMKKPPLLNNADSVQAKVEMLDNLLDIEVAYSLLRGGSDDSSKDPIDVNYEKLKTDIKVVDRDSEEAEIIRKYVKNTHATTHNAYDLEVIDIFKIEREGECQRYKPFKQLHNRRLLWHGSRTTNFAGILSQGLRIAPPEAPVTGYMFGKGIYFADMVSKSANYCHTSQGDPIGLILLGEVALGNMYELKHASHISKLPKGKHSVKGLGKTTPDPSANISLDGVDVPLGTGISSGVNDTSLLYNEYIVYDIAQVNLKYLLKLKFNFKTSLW
Description: as §1
Tankyrase 1 (TNKS1): 184.3 μM=5.2 mg/mL His6-TNKS1, MW=28.2 KDa (construct: 1088-1327, 1266M) in 20 mM Tris pH 8, 150 mM NaCl, 10% glycerol, and 0.5 mM TCEP. Alternatively, His6-tankyrase 2 (construct: 934-1166) (His6-TNKS2) or His6-PARP1 (full length) can be substituted for His6-TNKS 1.
as §2
Prepare Biotinylated IWR2 stock solution (3.33× stock) for TOTL and compound wells: 200 nM Biotin-IWR2 in 5% DMSO/AB1b buffer
Prepare BLANK well stock solution: 5% DMSO/AB1b buffer Prepare POSITIVE CONTROL well stock solution (3.33× stock): 200 nM XAV939 in 200 nM Biotin-IWR2/5% DMSO/AB1b buffer Prepare TNKS1 stock solution (5× stock): 300 nM TNKS in AB1a buffer. (Alternatively, use TNKS2 or PARP1 stock solutions.) Prepare Eu/APC stock solution (5× stock): 3.5 nM Eu-SA/50 nM APC-His6Ab in AB2 buffer.
Add 25 μL/well 1.5% DMSO/AB1c buffer in each compound well to the compound concentration at 74 μM in 8.8% DMSO/AB1c buffer or in the 2 μL DMSO CONTROL wells (BLANK, TOTAL and POSITIVE wells) in the compound plate. Transfer 3 μL/well of above solution (solution 1,2,3) to an empty assay plate (BD1536-well plate) as follows: TOTAL and cpd wells: Solution 1 (Biotin-IWR2): BLANK wells: Solution 2 (No Biotin-IWR2): POSITIVE CONTROL wells: Solution 3 (Biotin-IWR2XAV939) Transfer 3 μL/well of the above diluted compound solutions or compound dilution buffer to the above assay plate. Add 2 μL/well of 300 nM TNKS stock solution (4) to every well in the above assay plate. Centrifuge the assay plate at 2100 rpm for 2 min. Incubate the assay plate at 26° C. for 30 minutes. Add 2 μL/well 3.5 nMEu/50 nM APC solution (5) to every well in the above assay plate. Centrifuge the assay plate at 2100 rpm for 2 min. Incubate the assay plate at 26° C. for 60 min. Read the assay plate immediately at excitation wavelength of 330 nm and emission wavelength of […] in time resolved fluorescence mode.
. Representative compound data for the PARP1 assay is in TABLE 2 (below) Values are in μM.

T1 sequence (Q9H2K2 934-1166): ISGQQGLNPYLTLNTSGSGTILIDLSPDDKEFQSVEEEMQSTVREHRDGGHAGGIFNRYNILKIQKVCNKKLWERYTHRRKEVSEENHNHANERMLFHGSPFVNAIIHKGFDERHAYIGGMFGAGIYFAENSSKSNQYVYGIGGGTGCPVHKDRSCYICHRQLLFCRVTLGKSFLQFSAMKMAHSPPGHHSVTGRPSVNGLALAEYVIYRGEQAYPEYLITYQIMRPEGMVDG

SMILES	IC50 [1] [µM]	IC50 [2] [µM]	IC50 [3] [µM]
CC(C)(C)C1Cc2[nH]c(=O)c3cnccc3c2CO1 (racemic) [Compound I-43, rac-7-tert-Butyl-5,7,8,9-tetrahydro-6-oxa-2,9-diaza-phenanthren-10-one]	0.049	0.0439	0.876
CC1(C(=O)N2CCC(C3Cc4[nH]c(=O)c5ccccc5c4CO3)C2)CC1 (stereo not drawn) [Compound I-45, 2-[1-(1-Methyl-cyclopropanecarbonyl)-pyrrolidin-3-yl]-1,2,4,10-tetrahydro-3-oxa-10-aza-phenanthren-9-one]	0.0867	0.0647	0.0783
Cc1cccc2c(=O)[nH]c3c(c12)COC(C1CCN(C(=O)OC(C)(C)C)CC1)C3 (racemic) [Compound I-62, rac-4-(5-Methyl-9-oxo-1,4,9,10-tetrahydro-2H-3-oxa-10-aza-phenanthren-2-yl)-piperidine-1-carboxylic acid tert-butyl ester]	0.0237	0.0265	0.0381
O=c1[nH]c2c(c3ccccc13)CO[C@@H](C1CCCC1)C2 (single isomer, unassigned) [Compound I-12]	0.0194	0.016	0.0306
CC(C)(COCc1ccccc1)C1Cc2[nH]c(=O)c3ccccc3c2CO1 (racemic) [Compound I-29, rac-2-(2-Benzyloxy-1,1-dimethyl-ethyl)-1,2,4,10-tetrahydro-3-oxa-10-aza-phenanthren-9-one]	0.113	0.0672	0.126
CC(C)C1Cc2[nH]c(=O)c3ccncc3c2CO1 (racemic) [Compound I-14, rac-7-Isopropyl-5,7,8,9-tetrahydro-6-oxa-3,9-diaza-phenanthren-10-one]	0.204	0.0972	0.68
Cc1ccc2c(=O)[nH]c3c(c2n1)COC(C(C)(C)C)C3 (racemic) [Compound I-49, rac-2-tert-Butyl-6-methyl-1,2,4,10-tetrahydro-3-oxa-5,10-diaza-phenanthren-9-one]	0.0775	0.514	3.05
CC(C)(CO)C1Cc2[nH]c(=O)c3ccccc3c2CO1 (racemic) [Compound I-30, rac-2-(2-Hydroxy-1,1-dimethyl-ethyl)-1,2,4,10-tetrahydro-3-oxa-10-aza-phenanthren-9-one]			0.0533
CS(=O)(=O)N1CCC(C2Cc3[nH]c(=O)c4ccccc4c3CO2)C1 (stereo not drawn) [Compound I-39, 2-(1-Methanesulfonyl-pyrrolidin-3-yl)-1,2,4,10-tetrahydro-3-oxa-10-aza-phenanthren-9-one]			0.0365
Cc1cccc2c(=O)[nH]c3c(c12)COC(C(C)C)C3 (racemic) [Compound I-17, rac-2-Isopropyl-5-methyl-1,2,4,10-tetrahydro-3-oxa-10-aza-phenanthren-9-one]			0.107
Cc1cccc2c(=O)[nH]c3c(c12)CO[C@H](C(C)(C)CO)C3 (single isomer, unassigned) [Compound I-66]			0.0897
CC(C)(C)C1Cc2[nH]c(=O)c3ccccc3c2CO1 (racemic) [Compound I-8, rac-2-tert-Butyl-1,2,4,10-tetrahydro-3-oxa-10-aza-phenanthren-9-one]			0.176
CC(C)C1Cc2[nH]c(=O)c3cccnc3c2CO1 (racemic) [Compound I-4, rac-2-Isopropyl-1,2,4,10-tetrahydro-3-oxa-5,10-diaza-phenanthren-9-one]			0.345
Cc1cccc2c(=O)[nH]c3c(c12)CO[C@@H](C(C)(C)CO)C3 (single isomer, unassigned) [Compound I-67]			0.07
CC(C)C1Cc2[nH]c(=O)c3ccccc3c2CO1 (racemic) [Compound I-2, rac-2-Isopropyl-1,2,4,10-tetrahydro-3-oxa-10-aza-phenanthren-9-one]			0.0343
O=C(C1COC1)N1CCC(C2Cc3[nH]c(=O)c4ccccc4c3CO2)CC1 (racemic) [Compound I-52, rac-2-[1-(Oxetane-3-carbonyl)-piperidin-4-yl]-1,2,4,10-tetrahydro-3-oxa-10-aza-phenanthren-9-one]			0.0328
